In ChEMBL document CHEMBL1201862, “PubChem BioAssay data set” (2004) one finds IC50, AC50 and EC50 data, which are given here for 11 molecules.

The structures appear in SMILES notation. Calls of active or inactive are those of the source.

The target in experiment [1] is 72 kDa type IV collagenase (Homo sapiens, UniProt P08253). Briefly: Dose Response validation of uHTS RPN11 inhibitor hits using a MMP-2 Fluorescence assay. It is filed as functional.
For the next experiment, the target named is Prothrombin (Bos taurus, UniProt P00735). Briefly: thrombin protease inhibitors – biochemical, fluorescence polarization, uHTS hits, dose response (AID 602369). It is filed as functional. On the technique in general: In fluorescence polarisation assays a small probe gives low polarisation when free and higher when bound to something large.
Experiment [2] addresses 26S proteasome non-ATPase regulatory subunit 14 (Homo sapiens, UniProt O00487). Briefly: inhibition of proteasome subunit RPN11 – biochemical, fluorescence polarization, uHTS hits, confirmation (AID 602368). It is filed as functional.
Experiment [3] is described as follows: loss of viability in HepG2 cells – cell-based, CellTiter-Glo, cherry-picked, cytotoxicity control for Shn3 inhibitor project, dose response (AID 624134). It is filed as functional. (In general: In ATP-based viability assays light output follows the ATP content of the culture.)
Experiment [4] can be described thus: non-specific 3'UTR reporter inhibition in Clone20-Shn3RL – cell-based, Renilla luciferase, cherry-picked, counter-screen for Shn3 inhibitor project, dose response (AID 624133). It is filed as functional. (In general: Counterscreens check selectivity or assay interference.)
Experiment [5] can be described thus: reduction of Shn3 3'UTR-driven luciferase in osteoblasts – cell-based, Clone20 osteoblasts, firefly luciferase, cherry-picked, dose response (AID 624132).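 Further: firefly luciferase luminescence from reporter carrying the Shn3 3'UTR in osteoblasts.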 It is filed as functional.
The target in the next experiment is T1, Cytochrome P450 1A2 (Homo sapiens, UniProt P05177).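 Further: PubChem cytochrome P450 panel assay, CYP1A2 panel member.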
T1 sequence (P05177 whole entry): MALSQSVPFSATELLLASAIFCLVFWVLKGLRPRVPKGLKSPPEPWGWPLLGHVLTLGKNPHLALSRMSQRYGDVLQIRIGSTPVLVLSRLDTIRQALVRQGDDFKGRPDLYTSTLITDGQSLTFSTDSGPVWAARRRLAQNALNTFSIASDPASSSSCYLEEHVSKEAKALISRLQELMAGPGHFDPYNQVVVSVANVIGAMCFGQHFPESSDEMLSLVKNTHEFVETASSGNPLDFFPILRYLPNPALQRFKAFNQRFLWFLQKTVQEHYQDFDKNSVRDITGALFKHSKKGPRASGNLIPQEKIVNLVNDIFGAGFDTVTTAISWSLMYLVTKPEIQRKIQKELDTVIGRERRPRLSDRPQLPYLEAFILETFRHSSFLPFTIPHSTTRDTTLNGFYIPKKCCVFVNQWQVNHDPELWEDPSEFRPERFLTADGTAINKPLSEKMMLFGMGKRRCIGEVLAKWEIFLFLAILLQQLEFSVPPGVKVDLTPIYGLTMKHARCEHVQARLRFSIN

Experiment [6] concerns the target T2, Adenosylmethionine-8-amino-7-oxononanoate aminotransferase (Mycobacterium tuberculosis, UniProt P9WQ81).
T2 sequence (P9WQ81 whole entry): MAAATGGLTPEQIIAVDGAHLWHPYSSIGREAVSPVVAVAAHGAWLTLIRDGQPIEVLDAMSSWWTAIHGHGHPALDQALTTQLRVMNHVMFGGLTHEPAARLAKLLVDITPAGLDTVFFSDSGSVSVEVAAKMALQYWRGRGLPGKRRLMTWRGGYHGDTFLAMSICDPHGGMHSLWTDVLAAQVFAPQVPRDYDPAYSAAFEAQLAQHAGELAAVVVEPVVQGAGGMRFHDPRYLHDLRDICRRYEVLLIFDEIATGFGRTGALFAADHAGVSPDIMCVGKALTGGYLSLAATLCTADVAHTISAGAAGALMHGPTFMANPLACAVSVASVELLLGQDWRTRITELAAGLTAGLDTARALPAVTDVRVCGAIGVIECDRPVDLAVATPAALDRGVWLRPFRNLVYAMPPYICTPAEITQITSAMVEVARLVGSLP
Briefly: Mycobacterium tuberculosis BioA enzyme inhibitor Measured in Biochemical System Using Plate Reader - 2163-02_Inhibitor_Dose_CherryPick_Activity. It is filed as functional, Mycobacterium tuberculosis UT205.

The target of the next experiment is Large T antigen (Simian virus 40, UniProt P03070). It is filed as functional, Betapolyomavirus macacae.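 Further: Confirmatory-stage PubChem screen for compounds that inhibit SV40 T antigen.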
For experiment [7], the target named is T3, Low molecular weight phosphotyrosine protein phosphatase (Homo sapiens, UniProt P24666).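 Further: Dose-response confirmation assay measuring inhibition of LMPTP enzyme activity by fluorescence intensity read-out.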
T3 sequence (P24666 whole entry): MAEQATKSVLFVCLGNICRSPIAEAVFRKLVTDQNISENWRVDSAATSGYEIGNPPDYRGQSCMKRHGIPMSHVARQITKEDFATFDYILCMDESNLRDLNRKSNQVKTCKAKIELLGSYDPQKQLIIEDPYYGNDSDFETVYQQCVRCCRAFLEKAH
It is filed as functional. Conditions: read-out: IC50_Mean.

Experiment [8] in a line: NIH3T3 cell viability loss – ATP luminescence, mouse fibroblasts, counter-screen, dose response (AID 2010).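 Further: cells exposed to compound for about 90 hours before reading.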 In kind it is functional, cell-based.
The target in the next experiment is Cytochrome P450 2C9 (Homo sapiens, UniProt P11712).
The next experiment has as its target Cytochrome P450 3A4 (Homo sapiens, UniProt P08684).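 Further: CYP3A4 tested as one member of a cytochrome P450 panel screen.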
A short description of experiment [9]: Trypanosoma cruzi growth suppression in host cells – NIH3T3 host cells, beta-gal luminescence, confirmation (AID 2044).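 Further: intracellular parasites grown in NIH/3T3 mouse fibroblasts as host cells; luminescent beta-galactosidase reporter signal from transgenic T. cruzi replicating inside host cells; inhibitors lower the luminescence signal.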 In kind it is functional, cell-based.
Another experiment relates to INS1. Briefly: INS-1E survival protection against cytokine death – cell-based, luminescence, retest, dose response (AID 449756).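 Further: cell death triggered by IL-1 beta plus TNF-alpha plus IFN-gamma mixture; protective hits raise ATP signal compared with cytokine alone wells.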 In kind it is functional. Conditions: Rattus norvegicus.
A further experiment concerns the target Genome polyprotein (dengue virus type 2, UniProt P29990). Briefly: flavivirus cap methylation enzyme inhibition – biochemical, confirmation dose response, primary screen (AID 588689). It is filed as functional.
The target in experiment [10] is T4, Long-chain-fatty-acid--AMP ligase FadD28 (Mycobacterium tuberculosis, UniProt P9WQ59).
T4 sequence (P9WQ59 whole entry): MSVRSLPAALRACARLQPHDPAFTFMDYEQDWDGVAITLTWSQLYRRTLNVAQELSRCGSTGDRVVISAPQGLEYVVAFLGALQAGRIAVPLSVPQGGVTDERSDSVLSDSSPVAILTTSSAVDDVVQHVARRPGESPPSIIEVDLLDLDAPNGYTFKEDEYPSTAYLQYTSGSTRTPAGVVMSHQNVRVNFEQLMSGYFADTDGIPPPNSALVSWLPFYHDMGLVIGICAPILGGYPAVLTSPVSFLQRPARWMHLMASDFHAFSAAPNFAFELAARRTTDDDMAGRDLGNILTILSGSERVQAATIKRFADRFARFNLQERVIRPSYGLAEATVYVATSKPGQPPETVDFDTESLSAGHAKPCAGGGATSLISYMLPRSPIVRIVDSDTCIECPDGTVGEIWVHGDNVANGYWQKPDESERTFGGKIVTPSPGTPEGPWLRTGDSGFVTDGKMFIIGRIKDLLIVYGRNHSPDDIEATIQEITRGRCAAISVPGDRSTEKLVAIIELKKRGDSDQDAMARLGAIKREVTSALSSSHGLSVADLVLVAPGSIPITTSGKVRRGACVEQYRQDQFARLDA
Briefly: Fluorescence polarization aasay to screen for inhibitors that compete for the binding of FadD28 to a bisubstrate Measured in Biochemical System Using Plate Reader - 2147-01_Inhibitor_Dose_CherryPick_Activity. In kind it is functional, Mycobacterium tuberculosis H37Rv.

Chain of 72 kDa type IV collagenase (P08253 whole entry): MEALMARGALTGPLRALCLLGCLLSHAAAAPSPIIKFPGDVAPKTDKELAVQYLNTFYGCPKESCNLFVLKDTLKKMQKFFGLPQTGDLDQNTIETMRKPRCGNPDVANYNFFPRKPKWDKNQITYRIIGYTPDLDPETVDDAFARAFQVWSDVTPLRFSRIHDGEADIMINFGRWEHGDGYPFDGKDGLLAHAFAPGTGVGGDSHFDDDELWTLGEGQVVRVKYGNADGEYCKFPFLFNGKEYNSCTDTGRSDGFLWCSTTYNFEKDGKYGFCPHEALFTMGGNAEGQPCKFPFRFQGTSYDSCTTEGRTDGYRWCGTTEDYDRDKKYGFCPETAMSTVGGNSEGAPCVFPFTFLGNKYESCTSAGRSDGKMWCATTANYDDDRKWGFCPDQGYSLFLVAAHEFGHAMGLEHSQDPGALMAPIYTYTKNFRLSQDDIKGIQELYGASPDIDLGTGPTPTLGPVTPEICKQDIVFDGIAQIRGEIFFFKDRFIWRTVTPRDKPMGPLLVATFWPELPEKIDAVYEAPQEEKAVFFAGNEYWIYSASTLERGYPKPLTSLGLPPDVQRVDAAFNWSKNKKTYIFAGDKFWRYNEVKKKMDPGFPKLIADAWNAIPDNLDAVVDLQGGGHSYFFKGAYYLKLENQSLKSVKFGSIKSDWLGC
Chain of 26S proteasome non-ATPase regulatory subunit 14 (O00487 whole entry): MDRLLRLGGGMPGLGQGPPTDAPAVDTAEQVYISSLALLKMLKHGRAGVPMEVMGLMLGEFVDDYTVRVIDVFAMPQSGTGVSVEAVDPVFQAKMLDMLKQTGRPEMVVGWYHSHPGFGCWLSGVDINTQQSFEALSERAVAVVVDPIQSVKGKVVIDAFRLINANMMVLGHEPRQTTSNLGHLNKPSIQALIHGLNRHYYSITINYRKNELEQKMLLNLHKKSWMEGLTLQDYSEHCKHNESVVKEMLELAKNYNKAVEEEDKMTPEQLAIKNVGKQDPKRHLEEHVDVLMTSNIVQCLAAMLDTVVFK
Chain of Cytochrome P450 2C9 (P11712 whole entry): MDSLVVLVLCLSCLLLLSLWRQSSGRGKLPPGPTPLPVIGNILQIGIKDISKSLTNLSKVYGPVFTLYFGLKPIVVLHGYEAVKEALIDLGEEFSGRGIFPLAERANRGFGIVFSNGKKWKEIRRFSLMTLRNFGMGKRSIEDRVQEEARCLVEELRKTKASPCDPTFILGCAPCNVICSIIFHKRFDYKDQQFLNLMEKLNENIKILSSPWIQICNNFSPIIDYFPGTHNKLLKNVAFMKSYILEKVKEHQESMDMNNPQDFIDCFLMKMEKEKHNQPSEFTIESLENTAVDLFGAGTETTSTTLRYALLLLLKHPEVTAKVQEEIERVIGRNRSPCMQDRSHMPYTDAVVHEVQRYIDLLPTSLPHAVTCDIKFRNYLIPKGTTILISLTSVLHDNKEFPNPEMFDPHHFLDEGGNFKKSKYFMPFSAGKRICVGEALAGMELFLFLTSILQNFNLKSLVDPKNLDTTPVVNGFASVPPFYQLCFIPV
Chain of Large T antigen (P03070 whole entry): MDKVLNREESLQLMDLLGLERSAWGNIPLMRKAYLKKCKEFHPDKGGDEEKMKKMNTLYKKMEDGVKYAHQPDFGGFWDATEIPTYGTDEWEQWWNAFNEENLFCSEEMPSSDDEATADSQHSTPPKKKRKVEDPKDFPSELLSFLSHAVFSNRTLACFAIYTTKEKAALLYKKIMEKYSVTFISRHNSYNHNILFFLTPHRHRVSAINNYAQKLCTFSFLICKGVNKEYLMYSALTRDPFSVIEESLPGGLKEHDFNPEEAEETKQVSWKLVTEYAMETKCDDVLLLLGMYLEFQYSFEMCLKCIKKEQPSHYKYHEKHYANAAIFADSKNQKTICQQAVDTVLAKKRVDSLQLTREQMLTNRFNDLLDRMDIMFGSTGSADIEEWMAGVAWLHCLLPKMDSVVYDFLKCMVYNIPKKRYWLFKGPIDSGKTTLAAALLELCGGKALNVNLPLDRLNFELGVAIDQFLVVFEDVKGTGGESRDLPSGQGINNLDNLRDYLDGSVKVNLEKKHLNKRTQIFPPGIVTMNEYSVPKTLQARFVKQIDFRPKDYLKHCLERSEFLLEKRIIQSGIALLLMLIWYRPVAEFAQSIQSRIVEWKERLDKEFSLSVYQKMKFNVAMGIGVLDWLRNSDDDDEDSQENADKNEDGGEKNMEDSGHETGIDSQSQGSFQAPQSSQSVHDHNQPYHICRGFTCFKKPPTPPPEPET
Chain of Cytochrome P450 3A4 (P08684 whole entry): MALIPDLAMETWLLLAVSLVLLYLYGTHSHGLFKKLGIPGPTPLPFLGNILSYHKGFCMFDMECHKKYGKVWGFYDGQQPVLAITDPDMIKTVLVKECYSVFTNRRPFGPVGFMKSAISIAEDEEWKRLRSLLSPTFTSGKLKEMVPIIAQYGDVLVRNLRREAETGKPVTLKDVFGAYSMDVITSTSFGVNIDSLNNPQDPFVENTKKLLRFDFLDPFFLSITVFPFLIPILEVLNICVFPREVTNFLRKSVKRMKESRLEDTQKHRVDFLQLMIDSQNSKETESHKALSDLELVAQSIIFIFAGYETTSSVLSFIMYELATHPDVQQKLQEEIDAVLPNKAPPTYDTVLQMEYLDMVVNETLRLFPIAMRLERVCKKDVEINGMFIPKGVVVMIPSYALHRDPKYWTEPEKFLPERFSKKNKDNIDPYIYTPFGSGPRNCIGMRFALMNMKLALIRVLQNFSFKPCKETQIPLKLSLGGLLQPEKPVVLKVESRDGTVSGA
Chain of Genome polyprotein (P29990 2492-3391 limits assumed): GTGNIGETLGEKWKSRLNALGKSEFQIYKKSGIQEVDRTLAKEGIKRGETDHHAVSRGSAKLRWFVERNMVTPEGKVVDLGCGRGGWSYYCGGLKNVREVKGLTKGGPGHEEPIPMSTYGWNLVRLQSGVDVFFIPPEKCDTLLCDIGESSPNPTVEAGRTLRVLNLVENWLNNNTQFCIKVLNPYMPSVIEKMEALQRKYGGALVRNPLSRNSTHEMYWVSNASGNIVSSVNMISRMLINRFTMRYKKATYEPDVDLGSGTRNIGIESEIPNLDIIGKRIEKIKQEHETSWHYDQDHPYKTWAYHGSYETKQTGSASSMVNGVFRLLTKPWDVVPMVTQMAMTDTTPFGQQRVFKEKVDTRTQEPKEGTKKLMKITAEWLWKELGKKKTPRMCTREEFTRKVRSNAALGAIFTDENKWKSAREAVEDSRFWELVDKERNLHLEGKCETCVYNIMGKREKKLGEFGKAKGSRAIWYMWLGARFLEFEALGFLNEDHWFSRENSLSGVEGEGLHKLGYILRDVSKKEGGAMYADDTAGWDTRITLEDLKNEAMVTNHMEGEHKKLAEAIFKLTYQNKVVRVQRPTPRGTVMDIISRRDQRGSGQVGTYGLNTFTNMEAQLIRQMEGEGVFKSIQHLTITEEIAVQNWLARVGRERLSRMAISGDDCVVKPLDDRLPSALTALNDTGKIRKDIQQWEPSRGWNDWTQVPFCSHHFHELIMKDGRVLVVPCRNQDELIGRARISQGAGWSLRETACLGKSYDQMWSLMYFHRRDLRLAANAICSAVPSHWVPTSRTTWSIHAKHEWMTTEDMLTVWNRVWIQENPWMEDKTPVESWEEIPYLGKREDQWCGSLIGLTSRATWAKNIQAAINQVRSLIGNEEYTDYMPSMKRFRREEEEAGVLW

Regarding `O=C(CC1OC(=O)c2ccccc21)Nc1cc(Cl)ccc1N1CCCC1` (centres undefined), the IC50 in experiment [1] was > 100 µM (inactive); on Prothrombin, > 100 µM (inactive); in [2], 14.1 µM (active).
For orientation: AC50 means the concentration at which the activity in the assay is half-maximal. Turning to `Cc1cc2c(cc(C(=O)OC(C(=O)NC3CCCCC3)C(C)C)n2C)o1` (centres undefined), the AC50 was 55.8 µM (active) in [3], 7.23 µM (active) in experiment [4] and 5.9 µM (active) in experiment [5].
Turning to `Cc1sc2nc(CSCC(=O)Nc3ccccc3C#N)[nH]c(=O)c2c1C`, the IC50 in experiment [1] was > 100 µM (inactive); on Prothrombin, 8.26 µM (active); in [2], 6.2 µM (active).
`CCCc1c(OCCCOc2ccc(OCC(=O)O)cc2)ccc(C(C)=O)c1O`: the values for the AC50 (at Cytochrome P450 1A2; in [6]) were 31.6 µM (inconclusive) and 2.54 µM (active), respectively.
Turning to `Nc1ccc2[nH]c(CCCCCCc3nc4cc(N)ccc4[nH]3)nc2c1`, the figures for the IC50 (on Large T antigen; in experiment [7]) were 5.49 µM (active) and 20.8 µM (inactive), respectively.
What is called EC50 is the concentration giving half of the maximal effect. As for `O=C(Nc1ccc(-c2nc3ccccc3o2)cc1)c1ccc(N2CCOCC2)c([N+](=O)[O-])c1`, the AC50 is > 70 µM (inactive) in experiment [3]; 3.62 µM (active) in experiment [4]; 2.82 µM (inconclusive) at Cytochrome P450 2C9; 11.2 µM (inconclusive) on Cytochrome P450 3A4; 3.35 µM (active) in experiment [5]; 5.18 µM (active) with INS1. Moreover, the values for the EC50 in [8] and in experiment [9] were > 60 µM (not active) and 1.93 µM (active), respectively.
For `Cc1cccc2sc(NC(=O)C3CCCN(S(=O)(=O)c4cccc5nonc45)C3)nc12` (centres undefined), the results for the IC50 (in [1]; at Prothrombin; in experiment [2]) were > 100 µM (inactive), 26.2 µM (active) and 25.9 µM (active), respectively.
As for `O=C(CSc1nc2c(c(=O)n1-c1ccccc1)SCC2)N1CCOCC1`, the AC50 in experiment [6] is 2.62 µM (active).
As to `Cc1ccc(S(=O)(=O)N2[C@@H](c3cccc(Cl)c3)C(C(=O)O)=CC[C@H]2c2cccc(Cl)c2)cc1`, the IC50 at Genome polyprotein was 48.3 µM (active). In addition, the AC50 in experiment [10] was 24.9 µM (active).
Regarding `Cc1ccccc1S(=O)(=O)NCC[C@H]1CC[C@@H](NC(=O)Nc2cccc(F)c2)[C@H](CO)O1`, in [6], the AC50 is 11.3 µM (active).
Same read-out and setting: the value for `CN1c2ccc(-c3cccc(C#N)c3)cc2[C@H]2[C@H](CCN2C(=O)CC2CC2)[C@H]1CO` was 3.56 µM (active).
